These results are taken from patent US20180214388A1, “COMPOSITION AND METHOD FOR REDUCING SCARRING” (priority 2015, published 2018).

The structures appear in SMILES notation.

For data set [1], the system named is cytochrome P450 oxidase enzyme system. The conditions noted are these: metabolized in the liver; cited from earlier work.
The test system of data set [2] is subjects with existing scars, incision after surgical removal. The data set is described as follows: Caffeine cream for scar reduction or prevention after surgical excision (Example 3). It counts as in vivo, human. Particulars: topical cream; both subjects felt caffeine effects. From the text:
Two subjects with existing scars were chosen for the study.
Subject #1 presented with a skin growth on the left mid cheek.
Subject #2 presented with an older mid-forehead scar. […] The subject underwent a third revision of the scar.

The subject of a further data set is wound. The data set is described as follows: Wound healing with application of resveratrol. The format is in vivo.
The conditions of data set [3]: cited from earlier work.

`Cn1c(=O)[nH]c2ncn(C)c2c1=O` [Paraxanthine, 1,7-dimethyl-3H-purine-2,6-dione]: the “share of caffeine metabolites” value in data set [1] was 84%.
Take `Cn1c(=O)c2c(ncn2C)n(C)c1=O` [caffeine, 1,3,7-trimethylpurine-2,6-dione]: the “uptake from application site and distribution” value in data set [2] is “rapidly taken from the application site and distributed throughout the body”.
As for `Oc1ccc(/C=C/c2cc(O)cc(O)c2)cc1` [resveratrol, trans-3,4′,5-trihydroxystilbene], in the data set on wound, the resulting scar was “attenuated scar” and the time to epithelialization is at most 24 h. Further, the solubility in water result in data set [3] is reported as “very low solubility”.
Consider `Cn1c(=O)c2[nH]cnc2n(C)c1=O` [theophylline, 1,3-dimethyl-7H-purine-2,6-dione, reference compound], for which the “share of caffeine metabolites” value in data set [1] is recorded as 4%.
